From patent US6406679B1, “Use of HL-60-related lectins in drug delivery and detection of lectin-expressing cells” (Incyte Pharmaceuticals, Inc., priority 1992, dated 2002)

Legend:
[1] = test system: trypsinized rabbit erythrocytes; assay: Agglutination of trypsinized rabbit erythrocytes; format: cell-based; details: control, FIG. 5
From the text: (§1) Biological activity of the inventive 14 kD lectins 1) isolated from HL-60 cells, 2) isolated from placenta tissue or 3) prepared recombinantly from E. coli cells transfected with lectin cDNA operably linked to a secretion signal was ascertained by agglutination of trypsinized rabbit erythrocytes.

[2] = target: T1, 14 kD lectins (HL-60 cells, placenta, recombinant E. coli) (Homo sapiens, UniProt P09382); assay: Inhibition by competing sugars of lectin-induced agglutination of trypsinized rabbit erythrocytes; format: biochemical; details: FIG. 5
T1 construct: the N-terminal methionine of the HL-60 lectin appears to be cleaved, and the remaining protein can be acetylated; secretion signal (only the E. coli-made preparation); made in house; host or cells: three preparations tested side by side: purified from HL-60 cells, purified from human placenta tissue, recombinant from E. coli (secretion signal)
From the text: as §1

[3] = target: epitope recognized by M1 antibody on human blood cells (macrophages) (human); assay: flow cytometry of human blood cells pretreated with lectin, then stained with fluoresceinated M1 antibody, against untreated control
[4] = target: epitope recognized by M3 antibody on human blood cells (macrophages) (human); assay: flow cytometry of human blood cells pretreated with lectin, then stained with fluoresceinated M3 antibody, against untreated control

T1 sequence (P09382 2-135 limits assumed): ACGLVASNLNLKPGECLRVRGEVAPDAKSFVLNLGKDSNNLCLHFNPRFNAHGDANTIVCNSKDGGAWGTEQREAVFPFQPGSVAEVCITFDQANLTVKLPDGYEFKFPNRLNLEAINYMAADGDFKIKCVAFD

Concanavalin A
agglutination end-point [1]: 1.5 µg/mL

OC[C@H]1O[C@@H](O[C@H]2[C@H](O)[C@@H](O)[C@H](O)O[C@@H]2CO)[C@H](O)[C@@H](O)[C@H]1O [β-lactose]
concentrations inhibiting agglutination of the erythrocytes [2]: greater than 1.25 mM

recombinant 14 kD beta-galactoside-binding soluble lectin (HL-60 / placenta lectin) produced in E. coli (from UniProt P09382 2-135)
reduction of the percent of positive cells [3]: 33% | reduction of the percent of positive cells [4]: 26%

OC[C@H]1O[C@@H](S[C@@H]2O[C@H](CO)[C@H](O)[C@H](O)[C@H]2O)[C@H](O)[C@@H](O)[C@H]1O [Thiodigalactoside, thiodigalactoside]
concentrations inhibiting agglutination of the erythrocytes [2]: greater than 0.31 mM
